From patent publication US7932262B2 (Novartis AG, priority 2006, dated 2011)

Columns and labels:
[1] = biological target: T1, PDK1 kinase (Homo sapiens, UniProt O15530); test: PDK1 Kinase Alpha Screen Assay; format: biochemical; settings: PDK1 Kinase Alpha Screen Assay; read-out: PDK1 IC50
T1 sequence (O15530 1-556): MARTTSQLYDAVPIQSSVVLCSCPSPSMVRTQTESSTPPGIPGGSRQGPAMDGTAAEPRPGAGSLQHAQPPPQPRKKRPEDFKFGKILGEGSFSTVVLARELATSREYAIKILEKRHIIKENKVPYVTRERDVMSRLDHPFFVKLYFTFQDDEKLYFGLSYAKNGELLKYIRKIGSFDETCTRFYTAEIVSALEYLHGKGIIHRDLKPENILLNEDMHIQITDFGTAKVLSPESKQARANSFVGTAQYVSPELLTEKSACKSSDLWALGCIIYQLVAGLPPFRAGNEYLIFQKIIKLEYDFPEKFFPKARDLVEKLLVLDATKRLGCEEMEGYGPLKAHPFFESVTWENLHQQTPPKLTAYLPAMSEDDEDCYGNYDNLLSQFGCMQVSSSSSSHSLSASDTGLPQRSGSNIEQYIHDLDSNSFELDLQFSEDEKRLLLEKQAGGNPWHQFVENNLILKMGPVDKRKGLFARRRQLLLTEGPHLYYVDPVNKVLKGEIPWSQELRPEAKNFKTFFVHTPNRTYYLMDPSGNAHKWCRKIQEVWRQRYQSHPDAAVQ
Outline: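 Kinase inhibition measured as loss of AlphaScreen signal from antibody recognition of phosphorylated biotin-PDK1-4 peptide. Reactions contain 10 uM ATP and 50 nM peptide, run 3-18 hours before EDTA quench and overnight bead development at room temperature.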

[2] = tested on: PC-3 cells; test: Cell Proliferation Assay (Cell Titer Glo), PC-3 cell line; format: cell-based; settings: Homo sapiens, PC-3, Cell Proliferation Assay, PC3; read-out: CPEC50 PC3
Outline: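 Cell Titer Glo luminescence, read after fresh medium replaced the dosing medium, gave viability of PC-3 cells plated at 1000 cells/well. Compounds, 1:3 serially diluted in DMSO at 500× and then in medium, were added after 3-5 h adhesion and incubated 3 days at 37° C.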

Row | SMILES | IC50 [1] [µM] | EC50 [2] [µM]
1 | Fc1cc(Nc2ncc3cccc(C4=CCNCC4)c3n2)ccc1N1CCOCC1 [Compound 460, N-(3-fluoro-4-morpholinophenyl)-8-(1,2,3,6-tetrahydropyridin-4-yl)quinazolin-2-amine] | < 5 | < 5
2 | CN1CCN(c2ccc(-c3cccc4cnc(Nc5cc(C(=O)N6CCCC6)cc(C(F)(F)F)c5)nc34)cn2)CC1 [Compound 468, (3-(8-(6-(4-methylpiperazin-1-yl)pyridin-3-yl)quinazolin-2-ylamino)-5-(trifluoromethyl)phenyl)(pyrrolidin-1-yl)methanone] | 5 to 10 | < 5
3 | CN(C)C(=O)c1cc(Nc2ncc3cccc(OC4CCNCC4)c3n2)ccc1F [Compound 473, 2-fluoro-N,N-dimethyl-5-(8-(piperidin-4-yloxy)quinazolin-2-ylamino)benzamide] | < 5 | < 5
4 | CC(C)NC(=O)c1cc(Nc2ncc3cccc(OC4CCNCC4)c3n2)ccc1F [Compound 474, 2-fluoro-N-isopropyl-5-(8-(piperidin-4-yloxy)quinazolin-2-ylamino)benzamide] | < 5 | < 5
5 | O=C(c1cc(Nc2ncc3cccc(OC4CCNCC4)c3n2)ccc1F)N1CCOCC1 [Compound 475, (2-fluoro-5-(8-(piperidin-4-yloxy)quinazolin-2-ylamino)phenyl)(morpholino)methanone] | < 5 | 5 to 10
6 | O=C(NC1CCOCC1)c1cc(Nc2ncc3cccc(OC4CCNCC4)c3n2)ccc1F [Compound 476, 2-fluoro-5-(8-(piperidin-4-yloxy)quinazolin-2-ylamino)-N-(tetrahydro-2H-pyran-4-yl)benzamide] | < 5 | < 5
7 | O=C(c1ccc(Nc2ncc3cccc(OC4CCNCC4)c3n2)cc1F)N1CCCC1 [Compound 477, (2-fluoro-4-(8-(piperidin-4-yloxy)quinazolin-2-ylamino)phenyl)(pyrrolidin-1-yl)methanone] | < 5 | < 5
8 | CN1CCN(C(=O)c2ccc(Nc3ncc4cccc(OC5CCNCC5)c4n3)cc2F)CC1 [Compound 478, (2-fluoro-4-(8-(piperidin-4-yloxy)quinazolin-2-ylamino)phenyl)(4-methylpiperazin-1-yl)methanone] | < 5 | < 5
9 | c1ccc(Nc2ncc3cccc(OC4CCNCC4)c3n2)cc1 [Compound 479, N-phenyl-8-(piperidin-4-yloxy)quinazolin-2-amine] | < 5 | < 5
10 | Fc1cccc(Nc2ncc3cccc(OC4CCNCC4)c3n2)c1 [Compound 480, N-(3-fluorophenyl)-8-(piperidin-4-yloxy)quinazolin-2-amine] | < 5 | < 5
11 | O=C(O)c1ccc(Nc2ncc3cccc(OC4CCNCC4)c3n2)cc1Cl [Compound 481, 2-chloro-4-(8-(piperidin-4-yloxy)quinazolin-2-ylamino)benzoic acid] | < 5 | 5 to 10
12 | CC(C)NC(=O)c1ccc(Nc2ncc3cccc(OC4CCNCC4)c3n2)cc1Cl [Compound 482, 2-chloro-N-isopropyl-4-(8-(piperidin-4-yloxy)quinazolin-2-ylamino)benzamide] | < 5 | < 5
13 | O=C(c1ccc(Nc2ncc3cccc(OC4CCNCC4)c3n2)cc1Cl)N1CCOCC1 [Compound 483, (2-chloro-4-(8-(piperidin-4-yloxy)quinazolin-2-ylamino)phenyl)(morpholino)methanone] | < 5 | < 5
14 | Fc1ccc(Nc2ncc3cccc(OC4CCNCC4)c3n2)cc1Br [Compound 484, N-(3-bromo-4-fluorophenyl)-8-(piperidin-4-yloxy)quinazolin-2-amine] | < 5 | < 5
15 | O=C(NC1CC1)c1ccc(Nc2ncc3cccc(OC4CCNCC4)c3n2)cc1Cl [Compound 485, 2-chloro-N-cyclopropyl-4-(8-(piperidin-4-yloxy)quinazolin-2-ylamino)benzamide] | < 5 | < 5
16 | COCCNC(=O)c1ccc(Nc2ncc3cccc(OC4CCNCC4)c3n2)cc1Cl [Compound 486, 2-chloro-N-(2-methoxyethyl)-4-(8-(piperidin-4-yloxy)quinazolin-2-ylamino)benzamide] | < 5 | < 5

Continued, values first:

Row | IC50 [1] [µM] | EC50 [2] [µM] | SMILES
17 | < 5 | < 5 | CC(C)NC(=O)c1cc(F)cc(Nc2ncc3cccc(OC4CCNCC4)c3n2)c1 [Compound 461, 3-fluoro-N-isopropyl-5-(8-(piperidin-4-yloxy)quinazolin-2-ylamino)benzamide]
18 | < 5 | < 5 | O=C(c1cc(F)cc(Nc2ncc3cccc(OC4CCNCC4)c3n2)c1)N1CCOCC1 [Compound 462]
19 | < 5 | < 5 | CN1CCN(C(=O)c2cc(F)cc(Nc3ncc4cccc(OC5CCNCC5)c4n3)c2)CC1 [Compound 463, (3-fluoro-5-(8-(piperidin-4-yloxy)quinazolin-2-ylamino)phenyl)(4-methylpiperazin-1-yl)methanone]
20 | < 5 | 5 to 10 | Cc1ccc(OC2CCNCC2)c2nc(Nc3ccc(S(N)(=O)=O)cc3)ncc12 [Compound 464, 4-(5-methyl-8-(piperidin-4-yloxy)quinazolin-2-ylamino)benzenesulfonamide]
21 | < 5 | < 5 | c1cc(CN2CCOCC2)cc(Nc2ncc3cccc(-c4ccc(NCCN5CCCC5)nc4)c3n2)c1 [Compound 465, N-(3-(morpholinomethyl)phenyl)-8-(6-(2-(pyrrolidin-1-yl)ethylamino)pyridin-3-yl)quinazolin-2-amine]
22 | < 5 | < 5 | CN1CCN(c2ccc(-c3cccc4cnc(Nc5ccc(N6CCOCC6)c(Cl)c5)nc34)cn2)CC1 [Compound 466, N-(3-chloro-4-morpholinophenyl)-8-(6-(4-methylpiperazin-1-yl)pyridin-3-yl)quinazolin-2-amine]
23 | < 5 | < 5 | CN1CCN(c2ccc(-c3cccc4cnc(Nc5cc(C(=O)O)cc(C(F)(F)F)c5)nc34)cn2)CC1 [Compound 467, 3-(8-(6-(4-methylpiperazin-1-yl)pyridin-3-yl)quinazolin-2-ylamino)-5-(trifluoromethyl)benzoic acid]
24 | < 5 | 5 to 10 | C#Cc1ccc(OC2CCNCC2)c2nc(Nc3ccc(S(N)(=O)=O)cc3)ncc12 [Compound 469, 4-(5-ethynyl-8-(piperidin-4-yloxy)quinazolin-2-ylamino)benzenesulfonamide]
25 | < 5 | < 5 | c1cc(OC2CCNCC2)c2nc(Nc3ccc(N4CCOCC4)nc3)ncc2c1 [Compound 470, N-(6-morpholinopyridin-3-yl)-8-(piperidin-4-yloxy)quinazolin-2-amine]
26 | < 5 | < 5 | Clc1cc(Nc2ncc3cccc(OC4CCNCC4)c3n2)ccc1N1CCOCC1 [Compound 471, N-(3-chloro-4-morpholinophenyl)-8-(piperidin-4-yloxy)quinazolin-2-amine]
27 | < 5 | 5 to 10 | O=C(O)c1cc(Nc2ncc3cccc(OC4CCNCC4)c3n2)ccc1F [Compound 472, 2-fluoro-5-(8-(piperidin-4-yloxy)quinazolin-2-ylamino)benzoic acid]
